Where two headings read alike, the source gives them in different places. Marks after values point to notes of the source that are not given here. Bounds are passed on as bounds.

As usually defined, the Ki is a measure of affinity in units of concentration, obtained from inhibition or displacement.

The target in one test is T1, human GAL1 receptor (Homo sapiens, UniProt P47211).
T1 construct: expressed in transfected cells
T1 sequence (P47211 1-349): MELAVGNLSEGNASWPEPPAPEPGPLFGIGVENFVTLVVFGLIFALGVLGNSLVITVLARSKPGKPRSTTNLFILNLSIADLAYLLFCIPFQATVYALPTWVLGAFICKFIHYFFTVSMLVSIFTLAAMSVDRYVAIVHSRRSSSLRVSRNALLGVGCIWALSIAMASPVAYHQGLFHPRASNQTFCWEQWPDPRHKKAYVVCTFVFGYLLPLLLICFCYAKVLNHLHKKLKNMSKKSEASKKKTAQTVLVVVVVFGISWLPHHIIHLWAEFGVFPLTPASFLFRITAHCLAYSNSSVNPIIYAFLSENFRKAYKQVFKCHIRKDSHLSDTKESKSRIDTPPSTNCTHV
Description: Radioligand binding at cloned human GAL1 receptor. The settings on record: read-out: Ki GalR1. Put shortly: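 Membranes from CHO cells stably expressing human GAL2 and LM(tk-) cells stably expressing human GAL1, resuspended in binding buffer (10 mM NaCl, 20 mM HEPES, pH 7.4). Binding data fitted by nonlinear regression.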

A further test relates to Male Sprague-Dawley rats. The experiment in a line: Rat Forced Swim Test (FST). The format is in vivo. The settings on record: for Climbing / Diving / Immobility / Swimming: single administration, 1 hr. before test; for antidepressant profile in the FST (conclusion): overall conclusion of the study. As to the method:
The procedure used in this study was similar to that previously described (Porsolt, et al., 1978), except the water depth (30 cm in this procedure). The greater depth in this test prevented the rats from supporting themselves by touching the bottom of the cylinder with their feet. Swim sessions were conducted by placing rats in individual plexiglass cylinders (46 cm tall x 20 cm in diameter) containing 23-25°C water 30 cm deep (Porsolt, et al. used a depth of only 15 cm; also, see Detke, et al., 1995). Two swim tests were conducted always between 1200 and 1800 hours: an initial 15-min pretest followed 24 h later by a 5-minute test. […] All other test sessions were conducted between 1300 to 1700 hours. Following all swim sessions, rats were removed from the cylinders, dried with paper towels and placed in a heated cage for 15 minutes and returned to their home cages. All test sessions were videotaped using a Panasonic color video camera and recorder for scoring later.
Male Sprague-Dawley rats (Taconic Farms, NY) were used in all experiments. Rats were housed in pairs and maintained on a 12:12-h light-dark cycle. Rats were handled for 5 minutes each day for 5 days prior to behavioral testing.
The rat's behavior was rated at 5 second intervals during the 5 minute test as one of the following: • 1. Immobility- rat remained floating in the water without struggling and was only making those movements necessary to keep its head above water; • 2. Climbing - rat was making active movements with its forepaws in and out of the water, usually directed against the walls; • 3. Swimming - rat was making active swimming motions, more than necessary to merely maintain its head above water, e.g. moving around in the cylinder; and • 4. Diving - entire body of the rat was submerged.
All of the behavior scoring was done by a single rater, who was blind to the treatment condition. The rater was also present in the room throughout the entire test period.
All injections were given using 1 cc tuberculin syringe with 26 3/8 gauge needles (Becton-Dickinson, VWR Scientific, Bridgeport, NJ). The volume of injection was 1 ml/kg.
The drugs were dissolved in 100% N,N-dimethylacetamide. All administrations were given using 1 cc tuberculin syringes, to which a 3 inch, curved, stainless steel gavage needle was attached. The volume of administration was 1 ml/kg.
The compounds were dissolved in 100% N,N-dimethylacetamide. All administrations were given using 1 cc tuberculin syringes, to which a 3 inch, curved, stainless steel gavage needle was attached. The volume of administration was 1 ml/kg.
The forced swim test data (immobility, swimming, climbing, diving) were subjected to a randomized, one-way ANOVA and post hoc tests conducted using the Student-Newman-heuls test. The data were analyzed using the GBSTAT program, version 6.5 (Dynamics Microsystems, Inc., Silver Spring, MD, 1997). All data are presented as means ± S.E.M.

The target of test [1] is NE transporter (Rattus norvegicus, UniProt Q63380). Description: Binding at native NE transporter. The settings on record: Table 7; native transporter, head prints r (rat); read-out: rNE Uptk Ki. As to the method: (§1) The binding properties of the compounds of the present invention were evaluated at one or more cloned receptors or native, tissue-derived transporters, using protocols described below.
(§2) The methods to determine binding affinity at native transporters are described in the following publications: 5HT transporter and NE transporter (Owens et al., 1997), and DA transporter (Javitch et al, 1984).
(§3) Binding data were analyzed using nonlinear regression and statistical techniques available in the GraphPAD Prism package (San Diego, CA). Enzymatic assay data were derived from a standard curve of reference compound data.

Test [2] concerns NE transporter. The experiment in a line: Binding at native NE transporter. Conditions: Table 8; Ki rNE Uptk divided by Ki hGAL3. Here is the method:
as §1, §2, §3

Sequence of NE transporter (Rattus norvegicus, UniProt Q63380) (Q63380 1-617): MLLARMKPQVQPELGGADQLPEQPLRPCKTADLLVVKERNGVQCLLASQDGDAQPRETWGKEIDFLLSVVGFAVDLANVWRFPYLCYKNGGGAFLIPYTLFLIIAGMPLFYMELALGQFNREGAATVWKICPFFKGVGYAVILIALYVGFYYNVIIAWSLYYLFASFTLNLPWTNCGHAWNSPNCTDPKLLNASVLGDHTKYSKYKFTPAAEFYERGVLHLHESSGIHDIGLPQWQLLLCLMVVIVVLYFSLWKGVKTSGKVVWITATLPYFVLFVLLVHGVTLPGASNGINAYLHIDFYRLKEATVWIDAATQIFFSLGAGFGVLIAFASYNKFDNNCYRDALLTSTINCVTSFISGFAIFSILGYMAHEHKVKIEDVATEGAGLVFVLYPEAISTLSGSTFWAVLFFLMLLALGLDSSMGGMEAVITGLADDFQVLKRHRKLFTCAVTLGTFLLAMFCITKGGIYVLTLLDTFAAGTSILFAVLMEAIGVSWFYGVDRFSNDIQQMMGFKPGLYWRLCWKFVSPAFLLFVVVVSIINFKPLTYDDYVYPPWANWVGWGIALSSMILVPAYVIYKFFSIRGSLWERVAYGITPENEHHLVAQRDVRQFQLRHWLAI

`O=C1C(=Nc2ccc(C(F)(F)F)cc2)c2ccccc2N1c1ccccc1` [Example 95, 1-PHENYL-3-[[4-(TRIFLUOROMETHYL)PHENYL]IMINO]-1,3-DIHYDRO-2H-INDOL-2-ONE]: the inhibitory constant (Ki) on human GAL1 receptor (indolones) was above 10 µM. In the test with Male Sprague-Dawley rats (3 mg/kg p.o.), this compound gave a Climbing of 2.6 ± 0.8, a Diving of 0.0 ± 0.0, an Immobility of 40 ± 3.3 and a Swimming of 17.1 ± 2.5. Moreover, in the test with Male Sprague-Dawley rats (10 mg/kg p.o.), the Climbing is recorded as 1.3 ± 0.5, the Diving was determined as 0.1 ± 0.1, the Immobility is given as 52 ± 1.2^a and the Swimming is given as 6.9 ± 0.9^b. Also, in the test with Male Sprague-Dawley rats (30 mg/kg p.o.), the Climbing came to 1.0 ± 0.3, the Diving worked out at 0.0 ± 0.0, the Immobility is 54 ± 0.9^a and the Swimming is listed as 4.8 ± 0.7^b. For the same compound, the “antidepressant profile in the FST (conclusion)” value (shortened to “antidepressant profile”) in the test on Male Sprague-Dawley rats is listed as “does not produce antidepressant-like actions”. For the same compound, on NE transporter [1], the Ki was determined as 6.1 µM. The “selectivity ratio rNE Uptk” value in the test on NE transporter [2] is listed as above 100.
Take `O=C1C(=Nc2ccc(Br)cc2)c2ccccc2N1c1ccccc1` [Example 98, 3-[(4-BROMOPHENYL)IMINO]-1-PHENYL-1,3-DIHYDRO-2H-INDOL-2-ONE]: the inhibition constant (Ki) on human GAL1 receptor (indolones) was above 10 µM. Also, in the test with Male Sprague-Dawley rats (3 mg/kg p.o.), the Climbing was 4.3 ± 0.9^b, the Diving came out at 0.1 ± 0.1, the Immobility is 35 ± 2.6^a and the Swimming is on record as 20.4 ± 1.9^c. Also, in the test on Male Sprague-Dawley rats (10 mg/kg p.o.), the Climbing is recorded as 2.4 ± 0.3, the Diving is on record as 0.8 ± 0.4, the Immobility is on record as 39 ± 1.1^a and the Swimming is on record as 17.6 ± 1.0^c. In the test with Male Sprague-Dawley rats (30 mg/kg p.o.), the Climbing is given as 2.0 ± 0.3, the Diving came out at 0.2 ± 0.2, the Immobility is given as 38 ± 2.3^a and the Swimming was 20.3 ± 2.1^c. Further, the “antidepressant profile” value with Male Sprague-Dawley rats is listed as “resembling that of the clinically established antidepressant fluoxetine”. In addition, the Ki on NE transporter [1] turned out to be 5.5 µM. In addition, in the test on NE transporter [2], the “selectivity ratio rNE Uptk” value is recorded as above 100.
Regarding `Cc1ccc(Nc2cc(N3CCCCC3)nc(N(C)CCc3ccccc3)n2)cc1` [Example 22], the inhibition constant (Ki) on human GAL1 receptor (pyrimidines) stood at 0.442 µM. Moreover, in the test on Male Sprague-Dawley rats (3 mg/kg p.o.), the Climbing amounted to 2.0 ± 0.6, the Diving is on record as 0.4 ± 0.4, the Immobility is on record as 50 ± 0.9 and the Swimming is on record as 7.6 ± 0.5. Also, in the test with Male Sprague-Dawley rats (10 mg/kg p.o.), the Climbing came out at 2.9 ± 0.5, the Diving was 0.4 ± 0.3, the Immobility is 41 ± 1.3^c and the Swimming was 15.3 ± 0.8^g. Moreover, in the test on Male Sprague-Dawley rats (30 mg/kg p.o.), the Climbing is 5.2 ± 1.0^a, the Diving is 0.0 ± 0.0, the Immobility is on record as 31 ± 2.8^b and the Swimming was 23.2 ± 2.0^f. Besides, in the test with Male Sprague-Dawley rats, the “antidepressant profile” value is “has antidepressant properties”. In addition, the Ki on NE transporter [1] was determined as 13.1 µM. Besides, in the test on NE transporter [2], the “selectivity ratio rNE Uptk” value is on record as above 100.

The record behind these values is patent publication EP2140864A2 (H. Lundbeck A/S, priority 2001, dated 2002).
